Values quoted from earlier work, collected in patent publication US20230405125A1, “TREATMENT OF RECURRENT GIOBLASTOMA WITH PERILLYL ALCOHOL” (NeOnc Technologies, Inc., priority 2020, published 2023).
Entries after “also recorded” stand apart in the source; their conditions may differ. Like-named read-outs stand apart in the source and are kept apart here. Blank lines part the entries; values can stand above or below the molecule they belong to.

Legend:
[1] = tested on: patients with recurrent malignant gliomas
[2] = tested on: patients with different solid tumors; settings: oral POH
[3] = molecular target: farnesyl-protein transferase (FPT) (Homo sapiens, UniProt P49354+P49356)
[4] = Reardon et al. (CheckMate 143) 2020

Molecule: CCOP(=O)(OCC)C(C)NC(=O)N(CCCl)N=O (stereo not drawn) [Fotemustine]
OS-6 (recurrent GBM patients; human, in vivo): 73%
OS-9 (recurrent GBM patients; human, in vivo): 47%
OS-12 (recurrent GBM patients; human, in vivo): 40%
median OS (recurrent GBM patients; human, in vivo): 8.7 months

Molecule: O=NN(CCCl)C(=O)NC1CCCCC1 [Lomustine]
OS-6 (recurrent GBM patients; Batchelor et al. 2013): 70%
OS-9 (recurrent GBM patients; Batchelor et al. 2013): 52%
OS-12 (recurrent GBM patients; Batchelor et al. 2013): 41%
median OS (recurrent GBM patients; Batchelor et al. 2013): 9.8 months

effect on FPT enzymatic activity [3]: inhibit
Molecule: C=C(C)[C@@H]1CC=C(CO)CC1 [POH]
six month progression free survival rate ([1]; intranasal commercial grade POH with solvent cocktail, 150 patients): 50%
radiographic response ([1]; intranasal commercial-grade POH): Radiographic regression
tolerability / adverse effects ([1]; intranasal commercial-grade POH, four times daily): minimal side effect; also recorded: good tolerance; also recorded: no severe adverse effects
anti-cancer efficacy [2]: limited
tolerability [2]: Gastrointestinal toxicity proved dose-limiting
tolerability ([2]; listed as perillyl alcohol): poorly tolerated

Molecule: Bevacizumab: humanized monoclonal antibody against VEGF (vascular endothelial growth factor)
OS-6 (recurrent GBM patients; Field et al. (CABARET) 2015): 61%
OS-9 (recurrent GBM patients; Field et al. (CABARET) 2015): 39%
OS-12 (recurrent GBM patients; Field et al. (CABARET) 2015): 24%
median OS (recurrent GBM patients; Field et al. (CABARET) 2015): 7.5 months
OS-6 (recurrent GBM patients; Heiland et al. 2016): 18%
OS-12 (recurrent GBM patients; Heiland et al. 2016): 10%
median OS (recurrent GBM patients; Heiland et al. 2016): 4.1 months
OS-6 (recurrent GBM patients; Taal et al. (BELOB) 2014): 64%
OS-9 (recurrent GBM patients; Taal et al. (BELOB) 2014): 38%
OS-12 (recurrent GBM patients; Taal et al. (BELOB) 2014): 26%
median OS (recurrent GBM patients; Taal et al. (BELOB) 2014): 8.0 months

Molecule: Nivolumab: fully human monoclonal antibody targeting the programmed death-1 (PD-1) immune checkpoint receptor
OS-6 (recurrent GBM patients; [4]): 72%
OS-9 (recurrent GBM patients; [4]): 52%
OS-12 (recurrent GBM patients; [4]): 42%
median OS (recurrent GBM patients; [4]): 9.8 months
